The target in this assay is T1, Solute carrier family 22 member 12 (Homo sapiens, UniProt Q96S37).
T1 sequence (Q96S37 whole entry): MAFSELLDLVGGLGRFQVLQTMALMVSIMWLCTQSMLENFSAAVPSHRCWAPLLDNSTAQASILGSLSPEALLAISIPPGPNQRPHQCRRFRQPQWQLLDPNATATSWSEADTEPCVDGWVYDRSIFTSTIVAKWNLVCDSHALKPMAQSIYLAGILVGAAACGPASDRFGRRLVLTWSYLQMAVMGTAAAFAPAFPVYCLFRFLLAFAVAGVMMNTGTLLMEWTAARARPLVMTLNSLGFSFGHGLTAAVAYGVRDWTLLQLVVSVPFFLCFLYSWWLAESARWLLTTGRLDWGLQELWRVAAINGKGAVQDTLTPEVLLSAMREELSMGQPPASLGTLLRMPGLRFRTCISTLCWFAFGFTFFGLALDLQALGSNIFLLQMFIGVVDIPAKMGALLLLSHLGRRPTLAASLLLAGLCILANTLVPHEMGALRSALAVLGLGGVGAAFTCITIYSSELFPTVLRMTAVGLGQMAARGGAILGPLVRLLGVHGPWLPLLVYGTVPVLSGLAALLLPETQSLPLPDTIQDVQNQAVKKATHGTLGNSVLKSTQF
The experiment in a line: [14C]-Uric Uric acid working stock was made by addition of radiolabeled compound to a final concentration of 120 nM in chloride-free buffer. In all wells, the final assay concentration of solvent (DMSO) was 0.25%; the final assay concentration of [14C]-uric acid was 30 nM in chloride-free buffer and the final compound of formula (I) concentrations ranged from 0 to 10 uM.
Take `Cc1ccc(Cl)c(Oc2ccc(S(=O)(=O)Nc3ccc(F)cn3)cc2C#N)c1`: the concentration for half-maximal inhibition (IC50) – broadly, the point on the concentration scale where inhibition reaches its midpoint – is 196 nM.
In turn, `N#Cc1ccc(Oc2ccc(S(=O)(=O)Nc3ccc(F)cn3)cc2C#N)c(F)c1` yielded an IC50 of 47 nM.
Regarding `N#Cc1cc(S(=O)(=O)Nc2ccc(F)cn2)ccc1Oc1cnc(N)c(Cl)c1`, half-maximal inhibition (IC50) was put at 87 nM.
The compound `Cc1ccc(F)c(Oc2ccc(S(=O)(=O)Nc3ccc(F)cn3)cc2C#N)c1` came in with an IC50 of 117 nM.
`N#Cc1cc(S(=O)(=O)Nc2ccc(F)cn2)ccc1Oc1ccc(Cl)cc1Cl` gave an IC50 of 84 nM.
In turn, `N#Cc1ccccc1Oc1ccc(S(=O)(=O)Nc2ccc(F)cn2)cc1C#N` gave an IC50 of 495 nM.
With `N#Cc1cc(S(=O)(=O)Nc2ccc(F)cn2)ccc1Oc1cnc(N2CCC2)c(Cl)c1` the figure was 1000 nM; with `CNc1ncc(Oc2ccc(S(=O)(=O)Nc3ccc(F)cn3)cc2C#N)cc1Cl`, 258 nM; with `CN(C)c1ncc(Oc2ccc(S(=O)(=O)Nc3ccc(F)cn3)cc2C#N)cc1Cl`, 472 nM.
